The values that follow come from paper PMC5126668 (PeerJ, 2016).

Several values for one entry are separate records, joined by “and”; a condition that tells them apart may be missing. Identical values can stand only once. Like-named read-outs stand apart in the source and are kept apart here.

One data set addresses T1, CYP2D6 (Homo sapiens, UniProt P10635).
T1 construct: was investigated in HLMs; tissue iPhase Pharmaceutical Services (Beijing, China) Lot # 7MMC011; host or cells: pooled human liver microsomes
In words: Inhibition of CYP activities by GA in HLMs (dextromethorphan). Format: biochemical. How it is done: (§1) The samples containing HLMs were prepared in an ice bath, and three replicates of each dose were tested.
(§2) The reaction system consisted of 0.5 g/L HLMs, 1 mM NADPH, 25 µM phenacetin (CYP1A2 substrate), 25 µM tolbutamide (CYP2C9 substrate), 25 µM mephenytoin (CYP2C19 substrate), 10 µM dextromethorphan (CYP2D6 substrate) and 10 µM midazolam (CYP3A4 substrate). After incubation at 37 °C for 30 min, 200 µL of methanol containing 100 µg/L propranolol hydrochloride was added to terminate the reaction. The samples were then treated, and the corresponding substrate metabolites of CYP isoforms were detected according to a previously described method ([Shen et al., 2013]).

Another data set addresses T2, CYP3A4 (Homo sapiens, UniProt P08684).
T2 construct: was investigated in HLMs; tissue iPhase Pharmaceutical Services (Beijing, China) Lot # 7MMC011; host or cells: pooled human liver microsomes
In words: Inhibition of CYP activities by GA in HLMs (midazolam). Format: biochemical. How it is done: as §1, §2

The target of another data set is T3, CYP1A2 (Homo sapiens, UniProt P05177).
T3 construct: tissue iPhase Pharmaceutical Services (Beijing, China) Lot # 7MMC011; host or cells: pooled human liver microsomes
T3 sequence (P05177 1-516): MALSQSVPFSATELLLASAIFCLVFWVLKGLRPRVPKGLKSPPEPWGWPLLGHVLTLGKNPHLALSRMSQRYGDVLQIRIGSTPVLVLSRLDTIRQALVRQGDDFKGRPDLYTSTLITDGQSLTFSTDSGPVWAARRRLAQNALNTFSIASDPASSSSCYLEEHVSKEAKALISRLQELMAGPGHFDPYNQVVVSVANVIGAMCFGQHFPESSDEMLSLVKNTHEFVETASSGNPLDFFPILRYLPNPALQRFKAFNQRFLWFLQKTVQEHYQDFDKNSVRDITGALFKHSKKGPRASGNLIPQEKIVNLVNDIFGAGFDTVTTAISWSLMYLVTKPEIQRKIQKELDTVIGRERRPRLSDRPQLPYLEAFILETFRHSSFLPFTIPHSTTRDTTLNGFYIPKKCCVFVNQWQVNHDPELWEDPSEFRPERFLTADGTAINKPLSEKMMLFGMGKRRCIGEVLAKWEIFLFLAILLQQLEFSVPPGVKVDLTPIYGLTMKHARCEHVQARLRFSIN
Briefly: Inhibition of CYP activities by GA in HLMs (phenacetin). Format: biochemical. The protocol:
as §1, §2

In the next data set the target is T4, CYP2C19 (Homo sapiens, UniProt P33261).
T4 construct: was investigated in HLMs; tissue iPhase Pharmaceutical Services (Beijing, China) Lot # 7MMC011; host or cells: pooled human liver microsomes
Briefly: Inhibition of CYP activities by GA in HLMs (mephenytoin). In kind it is biochemical. The protocol: as §1, §2

The nature of data set [1]: BAK exposure in rat liver and kidney 24 h after dosing. Format: in vivo, Sprague–Dawley rats. To be noted: for concentration at 24 h: Sprague-Dawley, po, 200 mg/kg. How it is done:
The liver and kidney tissue were also collected from individual rats 24 h after dosing, weighed and then homogenized in saline solution (0.6 g wet weight/mL) on ice. Subsequently, 10 µL of internal standard solution (tanshinone II A, 10 µg/mL) and 0.3 mL of acetonitrile were added to 0.1 mL of plasma or homogenates, and centrifuged at 13,300 rpm for 15 min after 2 min of vortexing. The supernatant was reconstituted in 100 µL of mobile phase after drying under 40 °C nitrogen, the mixture then was vortexed for 5 min and centrifuged at 13,300 rpm for 15 min. Finally, 20 µL of supernatant was injected for HPLC analysis. […] The mobile phase consisted of methanol and water with 0.1% formic acid (89:11, v/v) and was supplied at a flow rate of 0.8 mL/min. The detection wavelength was set to 262 nm. […] The recovery was >93%.

T2 sequence (P08684 whole entry): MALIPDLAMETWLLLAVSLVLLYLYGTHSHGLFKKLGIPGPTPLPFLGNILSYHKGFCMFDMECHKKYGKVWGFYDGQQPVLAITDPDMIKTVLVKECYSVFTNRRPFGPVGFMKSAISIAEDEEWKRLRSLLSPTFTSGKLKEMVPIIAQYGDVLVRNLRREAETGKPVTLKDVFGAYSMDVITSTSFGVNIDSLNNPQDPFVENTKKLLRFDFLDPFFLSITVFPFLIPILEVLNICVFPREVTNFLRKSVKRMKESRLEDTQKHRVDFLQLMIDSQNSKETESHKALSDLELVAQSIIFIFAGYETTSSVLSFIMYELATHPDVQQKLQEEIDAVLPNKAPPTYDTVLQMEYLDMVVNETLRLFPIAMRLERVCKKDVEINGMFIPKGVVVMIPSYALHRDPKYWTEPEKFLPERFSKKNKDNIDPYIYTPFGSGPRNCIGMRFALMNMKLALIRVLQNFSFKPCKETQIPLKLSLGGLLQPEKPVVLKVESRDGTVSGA
T1 sequence (P10635 whole entry): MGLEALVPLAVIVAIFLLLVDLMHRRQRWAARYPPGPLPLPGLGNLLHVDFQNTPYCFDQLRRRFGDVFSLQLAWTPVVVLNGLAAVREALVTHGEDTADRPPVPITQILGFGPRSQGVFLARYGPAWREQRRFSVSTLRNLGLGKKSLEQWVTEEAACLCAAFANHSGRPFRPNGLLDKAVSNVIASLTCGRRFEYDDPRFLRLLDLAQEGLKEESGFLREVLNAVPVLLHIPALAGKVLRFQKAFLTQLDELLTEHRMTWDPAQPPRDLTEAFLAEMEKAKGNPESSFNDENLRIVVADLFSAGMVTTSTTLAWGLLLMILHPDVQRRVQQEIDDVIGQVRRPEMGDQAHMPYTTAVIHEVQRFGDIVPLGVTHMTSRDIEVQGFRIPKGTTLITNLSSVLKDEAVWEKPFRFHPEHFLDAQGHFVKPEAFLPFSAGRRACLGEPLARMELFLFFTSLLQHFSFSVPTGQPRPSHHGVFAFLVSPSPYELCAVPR
T4 sequence (P33261 whole entry): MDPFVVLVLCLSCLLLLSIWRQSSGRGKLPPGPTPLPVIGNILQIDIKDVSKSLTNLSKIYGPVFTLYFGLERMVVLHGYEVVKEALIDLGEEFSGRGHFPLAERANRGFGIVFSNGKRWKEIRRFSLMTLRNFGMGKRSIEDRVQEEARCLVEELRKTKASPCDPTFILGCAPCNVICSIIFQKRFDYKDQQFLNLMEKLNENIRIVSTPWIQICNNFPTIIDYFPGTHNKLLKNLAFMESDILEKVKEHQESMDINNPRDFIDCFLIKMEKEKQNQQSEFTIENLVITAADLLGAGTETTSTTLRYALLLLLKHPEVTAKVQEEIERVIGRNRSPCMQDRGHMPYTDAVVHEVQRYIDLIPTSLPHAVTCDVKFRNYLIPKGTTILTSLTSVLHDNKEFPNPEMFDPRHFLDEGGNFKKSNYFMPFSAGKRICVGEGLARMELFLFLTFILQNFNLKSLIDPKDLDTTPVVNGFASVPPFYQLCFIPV

On to `CC1(C)[C@@H](O)CC[C@]2(C)[C@H]3C(=O)C=C4[C@@H]5C[C@@](C)(C(=O)O)CC[C@]5(C)CC[C@@]4(C)[C@]3(C)CC[C@@H]12` [GA, Glycyrrhetinic acid], for which the IC50 – broadly, the point on the concentration scale where inhibition reaches its midpoint – on CYP2D6 (HLMs, 30 min pre-incubation with NADPH, dextromethorphan 10 µM) came out at 263 ± 1.05 µM; at CYP3A4 (HLMs, 30 min pre-incubation with NADPH, midazolam 10 µM, µM), 1.53 ± 2.25 µM; on CYP1A2 (HLMs, 30 min pre-incubation with NADPH, phenacetin 25 µM), 61.1 ± 1.13 µM; against CYP2C19 (HLMs, 30 min pre-incubation with NADPH, mephenytoin 25 µM), 175.2 ± 1.26 µM. Besides, the activity at 30 min, 0.1 µM stood at 96.4% on CYP2D6 (human, human liver microsomes, probe dextromethorphan (10 µM), CYP2D6-30min, GA 0.10, vs control, read-out: Relative activity (%)); 95.9% at CYP3A4 (human, human liver microsomes, probe midazolam (10 µM), CYP3A4-30min, GA 0.10, vs control, read-out: Relative activity (%)); 95% at CYP1A2 (human, human liver microsomes, probe phenacetin (25 µM), CYP1A2-30min, GA 0.1000, vs control, read-out: Relative activity (%)); 117% at CYP2C19 (human, human liver microsomes, probe mephenytoin (25 µM), CYP2C19-30min, GA 0.1000, vs control, read-out: Relative activity (%)). Besides, the activity at 30 min, 1 µM on CYP2D6 (human, human liver microsomes, probe dextromethorphan (10 µM), CYP2D6-30min, GA 1.00, vs control, read-out: Relative activity (%)) was 92.4%; at CYP3A4 (human, human liver microsomes, probe midazolam (10 µM), CYP3A4-30min, GA 1.00, vs control, read-out: Relative activity (%)), 64.6%; at CYP1A2 (human, human liver microsomes, probe phenacetin (25 µM), CYP1A2-30min, GA 1.0000, vs control, read-out: Relative activity (%)), 84.3%; on CYP2C19 (human, human liver microsomes, probe mephenytoin (25 µM), CYP2C19-30min, GA 1.0000, vs control, read-out: Relative activity (%)) it was 105%. The activity at 30 min, 6.25 µM on CYP2D6 (human, human liver microsomes, probe dextromethorphan (10 µM), CYP2D6-30min, GA 6.25, vs control, read-out: Relative activity (%)) came out at 96%; at CYP3A4 (human, human liver microsomes, probe midazolam (10 µM), CYP3A4-30min, GA 6.25, vs control, read-out: Relative activity (%)), 39.1%; on CYP1A2 (human, human liver microsomes, probe phenacetin (25 µM), CYP1A2-30min, GA 6.2500, vs control, read-out: Relative activity (%)), 89.2%; at CYP2C19 (human, human liver microsomes, probe mephenytoin (25 µM), CYP2C19-30min, GA 6.2500, vs control, read-out: Relative activity (%)), 88%. Further, the activity at 30 min, 31.25 µM is 91.1% at CYP2D6 (human, human liver microsomes, probe dextromethorphan (10 µM), CYP2D6-30min, GA 31.25, vs control, read-out: Relative activity (%)); 13.5% on CYP3A4 (human, human liver microsomes, probe midazolam (10 µM), CYP3A4-30min, GA 31.25, vs control, read-out: Relative activity (%)); 70.9% on CYP1A2 (human, human liver microsomes, probe phenacetin (25 µM), CYP1A2-30min, GA 31.2500, vs control, read-out: Relative activity (%)); 80% on CYP2C19 (human, human liver microsomes, probe mephenytoin (25 µM), CYP2C19-30min, GA 31.2500, vs control, read-out: Relative activity (%)). The activity at 30 min, 100 µM at CYP2D6 (human, human liver microsomes, probe dextromethorphan (10 µM), CYP2D6-30min, GA 100.00, vs control, read-out: Relative activity (%)) was determined as 85.1%; at CYP3A4 (human, human liver microsomes, probe midazolam (10 µM), CYP3A4-30min, GA 100.00, vs control, read-out: Relative activity (%)) it was 15.2%; on CYP1A2 (human, human liver microsomes, probe phenacetin (25 µM), CYP1A2-30min, GA 100.0000, vs control, read-out: Relative activity (%)) it was 31%; on CYP2C19 (human, human liver microsomes, probe mephenytoin (25 µM), CYP2C19-30min, GA 100.0000, vs control, read-out: Relative activity (%)) it was 72.5%. Moreover, the activity at 30 min, 156.25 µM on CYP2D6 (human, human liver microsomes, probe dextromethorphan (10 µM), CYP2D6-30min, GA 156.25, vs control, read-out: Relative activity (%)) is 81.7%; at CYP3A4 (human, human liver microsomes, probe midazolam (10 µM), CYP3A4-30min, GA 156.25, vs control, read-out: Relative activity (%)) it was 13.1%; on CYP1A2 (human, human liver microsomes (HLMs), probe phenacetin 25 µM, CYP1A2-30min, GA 156.2500, vs control, read-out: Relative activity (%)), 18.2%; on CYP2C19 (human, human liver microsomes, probe mephenytoin (25 µM), CYP2C19-30min, GA 156.2500, vs control, read-out: Relative activity (%)), 57.9%. The activity at 30 min, 312.5 µM was found to be 42% on CYP2D6 (human, human liver microsomes, probe dextromethorphan (10 µM), CYP2D6-30min, GA 312.50, vs control, read-out: Relative activity (%)); 0.261% on CYP3A4 (human, human liver microsomes, probe midazolam (10 µM), CYP3A4-30min, GA 312.50, vs control, read-out: Relative activity (%)); 14.1% at CYP1A2 (human, human liver microsomes, probe phenacetin 25 µM, CYP1A2-30min, GA 312.5000, vs control, read-out: Relative activity (%)); 0% at CYP2C19 (human, human liver microsomes, probe mephenytoin (25 µM), CYP2C19-30min, GA 312.5000, vs control, read-out: Relative activity (%)). Besides, the activity at 30 min, 1000 µM was 29.3% at CYP2D6 (human, human liver microsomes, probe dextromethorphan (10 µM), CYP2D6-30min, GA 1000.00, vs control, read-out: Relative activity (%)); 0.298% at CYP3A4 (human, human liver microsomes, probe midazolam (10 µM), CYP3A4-30min, GA 1000.00, vs control, read-out: Relative activity (%)); 5.73% on CYP1A2 (human, human liver microsomes, probe phenacetin 25 µM, CYP1A2-30min, GA 1000.0000, vs control, read-out: Relative activity (%)). Besides, the activity at 30 min, […] at CYP2D6 (human, human liver microsomes, probe dextromethorphan (10 µM), read-out: Relative activity (%)) was 69.7%; at CYP3A4 (human, human liver microsomes, probe midazolam (10 µM), read-out: Relative activity (%)) it was 3.63%; on CYP1A2 (human, human liver microsomes, probe phenacetin 25 µM, read-out: Relative activity (%)), 10.3%; at CYP2C19 (human, human liver microsomes, probe mephenytoin (25 µM), read-out: Relative activity (%)), 36.8%.
`C=C[C@@](C)(/C=C/c1ccc(O)cc1)CCC=C(C)C` [BAK, Bakuchiol]: in data set [1] (24 h after administration), the “BAK in kidney relative to liver” value is given as 1.37- to 1.54 fold. Also, in data set [1] (24 h after single oral dose), the “Exposure of BAK, Kidney, single rats” value is 0.7466 µg/g and 0.7844 µg/g and 0.7813 µg/g and 0.8035 µg/g. Besides, the “Exposure of BAK, Liver, single rats” value in data set [1] (24 h after single oral dose) was 0.5617 µg/g and 0.5502 µg/g and 0.5630 µg/g and 0.5314 µg/g. The concentration at 24 h in data set [1] (kidney, 24 h after single oral dose, read-out: Exposure of BAK, Kidney, mean) was found to be 755 ng/g; in data set [1] (kidney, 24 h after single oral dose, read-out: Exposure of BAK, Kidney, single rats), 661 ng/g; in data set [1] (liver, 24 h after single oral dose, read-out: Exposure of BAK, Liver, mean) it was 548 ng/g; in data set [1] (liver, 24 h after single oral dose, read-out: Exposure of BAK, Liver, single rats) it was 531 ng/g.
